In patent US6746678B1, “Method of treating neurological diseases and etiologically related symptomology using carbonyl trapping agents in combination with medicaments” (priority 1991, dated 2004):

How the values were obtained:
[1] = system: left median and ulnar nerves; assay: Nerve conduction studies on Subject 1 in the clinical trial of PABA with antioxidant and vitamin co-agents; assay type: in vivo, human; conditions: for Latency: distal latency; for Latency / Amplitude / Conduction velocity: May 6, 1992 study; for Change in amplitude / Change in conduction velocity / Change in distal latency: May 6, 1992 vs Jun. 20, 1988
Experimental: Subject 1 is an individual and having hereditary motor and sensory neuropathy. The subject's family has the X-linked subvariety of the disease. All of the composition ingredients of this example were administered via the oral route. On Sep. 1, 1990 Subject 1 began taking three 100 mg tablets of p-aminobenzoic acid per day. This daily dosage consisted of single 100 mg tablets (Schiff Products, Moonachie, N.J.) taken one at a time approximately every eight hours. Also initiated at this time and taken three times per day: DL-methionine, 500 mg and vitamin E (as mix tocopherols in oil-based capsules), 200 I.U. Their weight at the time was approximately 165 lbs. The daily dosage times were approximately 8:00 AM, 4:00 PM and 11:30 PM. This original low dosage of PABA was selected in part as a check to ensure no adverse immunologic reaction. Symptoms of allergic reaction such as bronchial constriction or skin rash were not observed. […] On Oct. 1, 1990 Subject 1 began taking a total of 600 mg PABA per day by doubling the original dosage noted above; 200 mg taken three times per day. Also taken with PABA: DL-methionine, 500 mg and vitamin E, 200 I.U. On Jan. 1, 1991 Subject 1 began taking three 550 mg capsules of PABA (Solgar Co., Lynbrook, N.Y.) per day, one approximately every eight hours. DL-Methionine use was doubled to 1,000 mg every eight hours. Likewise, vitamin E deosage was doubled to 400 I.U. every eight hours. In addition, the following dietary supplements were initiated and taken once per day (4:00 PM): On Feb. 24, 1991 Subject 1 began taking six 550 mg capsules of PABA per day, two every eight hours plus the dietary supplement combination initiated January 1st. DL-Methionine and vitamin E dosage were continued as initiated January 1st; 3,000 mg and 1,200 I.U. total daily, respectively. Dosage of additional dietary supplements was also continued as initiated January 1st, with the addition of 100 mg vitamin B1 per day. Also, selenium daily dosage was reduced to 12 ug per day. As of May 1, 1991 consumption of pantothenic acid and vitamin B1 were tripled to 250 mg 3× daily and 100 mg 3× daily, respectively, taken with PABA. Also initiated now, vitamin B6, 100 mg taken 3× daily with PABA. As of Jul. 1, 1991 the methionine product was switched to “L-Methionine 500 mg Caps with Vitamin B6” (Nature's Plus, Farmingdale, N.Y.). Each capsule has the free form of the L-amino acid and 50 mg vitamin B6. This dose of vitamin B6 is in addition to the 300 mg/day noted in the preceding paragraph. As of Jul. 26, 1991 the vitamin E product was switched to “Natural Dry All E, 400 I.U.” (Schiff Products, Moonachie, N.J.). One of these dry powder capsules is taken 3× daily with PABA, as before. As of Aug. 7, 1991 daily doses of PABA, methionine and vitamin E were increased by 50%. Thus starting at this time, three 550 mg PABA capsules, three 500 mg methionine capsules, one 400 I.U. dry vitamin E and a 200 I.U. dry vitamin E capsule were taken at a time, three times per day. Daily totals of these agents were now: PABA, 4.95 gm; methionine, 4.5 gm; and vitamin E, 1,800 I.U. Other agents were taken as before. As of Nov. 22, 1991 the daily dose of PABA was increased. Thus starting at this time, four 550 mg PABA capsules were taken at a time, three times per day. Daily total of PABA was now 6.6 gm. Other agents were taken as before. On Jun. 20, 1988 Subject 1 participated in a nerve conduction research study at the National Institutes of Health. Nerve conduction data was recorded from the left median and ulnar nerves, which included conduction velocity, amplitude and distal latency for each nerve. On May 6, 1992 Subject 1 was tested again at the office of a neurologist in Bryn Mawr, Pa. This experimental drug trial involved a step-by-step increase in dosages over an extended period. […]

[2] = Check for adverse immunologic or clinical reaction to low-dose oral PABA in Subject 1; assay type: in vivo, human; conditions: oral PABA 100 mg three times per day with DL-methionine 500 mg and vitamin E 200 I.U.
Experimental: Subject 1 is an individual and having hereditary motor and sensory neuropathy. The subject's family has the X-linked subvariety of the disease. All of the composition ingredients of this example were administered via the oral route.
On Sep. 1, 1990 Subject 1 began taking three 100 mg tablets of p-aminobenzoic acid per day. This daily dosage consisted of single 100 mg tablets (Schiff Products, Moonachie, N.J.) taken one at a time approximately every eight hours. Also initiated at this time and taken three times per day: DL-methionine, 500 mg and vitamin E (as mix tocopherols in oil-based capsules), 200 I.U. Their weight at the time was approximately 165 lbs. The daily dosage times were approximately 8:00 AM, 4:00 PM and 11:30 PM. This original low dosage of PABA was selected in part as a check to ensure no adverse immunologic reaction. Symptoms of allergic reaction such as bronchial constriction or skin rash were not observed.

myocardial glutathione = conditions: subsequent to experimental ischemia and reperfusion; cited from earlier work
[3] = system: plasma cysteine, plasma glutathione and red blood cell glutathione; conditions: in vivo; cited from earlier work

Row | Structure (SMILES) | Latency ([1]; left median nerve, after PABA up to 6.6 gm/day with co-agents, pre-treatment Jun. 20, 1988 value 12.4) [ms] | Amplitude ([1]; left median nerve, after PABA up to 6.6 gm/day with co-agents, pre-treatment Jun. 20, 1988 value 0.4) [mV] | Conduction velocity ([1]; left median nerve, after oral PABA raised stepwise from 300 mg/day to 6.6 gm/day (Sep 1990-May 1992) with methionine, vitamin E and vitamin co-agents, Subject 1, X-linked HMSN, pre-treatment Jun. 20, 1988 value 28) [meters/sec] | Change in amplitude ([1]; left median nerve) | Change in conduction velocity ([1]; left median nerve) | Change in distal latency ([1]; left median nerve) | Latency ([1]; left ulnar nerve, after PABA up to 6.6 gm/day with co-agents, pre-treatment Jun. 20, 1988 value 13.8) [ms] | Amplitude ([1]; left ulnar nerve, after PABA up to 6.6 gm/day with co-agents, pre-treatment Jun. 20, 1988 value 1.3) [mV] | Conduction velocity ([1]; left ulnar nerve, after PABA up to 6.6 gm/day with co-agents, pre-treatment Jun. 20, 1988 value 29) [meters/sec] | Change in amplitude ([1]; left ulnar nerve) | Change in conduction velocity ([1]; left ulnar nerve) | Change in distal latency ([1]; left ulnar nerve) | Clinical reaction to PABA [2] | Symptoms of allergic reaction such as bronchial constriction or skin rash [2] | Increase in myocardial glutathione (myocardial glutathione) [fold] | Levels of plasma cysteine, plasma glutathione and red blood cell glutathione [3]
1 | Nc1ccc(C(=O)O)cc1 [PABA, 4-Aminobenzoic acid] | 13.1 | 0.4 | 28.2 | remained unchanged | remained unchanged | increased (that is, worsened) by six percent | 13.1 | 2.4 | 31.8 | improved by eighty-five percent | improved by ten percent | improved by five percent | no clinical reaction | not observed | – | –
2 | CC(=O)N[C@@H](CS)C(=O)O [N-acetyl-cysteine] | – | – | – | – | – | – | – | – | – | – | – | – | – | – | 100 | increase
